In patent US9243031B2, “Complex-forming compounds” (priority 2011, dated 2016):
“Also recorded” adds a separate entry of the source. Where two headings read alike, the source gives them in different places.

Tests used:
[1] = Measurement of metal selectivity by HPLC-MS (ESI), ratio of metal adduct to Ca adduct signals; assay type: binding
Method: (§1) Therefore, the measurements of Ca—Sr ionselectivity were carried out with an AGILENT 6140 Octapol MS (mass spectrometer) equipped with an AGILENT 1200 HPLC. The ionization was carried out by using an electron-spray (ESI, MM-FS) soft ionization equipment with positive detection. During the measurements different complex-forming compounds of the formulas (P-1), P-2), (P-3) prepared with the synthesizes shown above and decorporol of the formula (XI) were added to stock solutions, then the solutions were measured with mass spectrometry.
(§2) The measuring of Ca—Sr ionselectivity was carried out with an AGILENT 6140 Octapol MS (mass spectrometer) equipped with an AGILENT 1200 HPLC. The ionization was carried out by using an electron-spray (ESI, MM-FS) soft ionization equipment with positive detection. The used field strength was 10000V, the spray temperature 220° C., Fragmentor: 70; Treshold: 500, stepsize 0.2 Da; Ionization Switch Delay: 0 ms; Polarity Switch Delay 300 ms; Gain: 1:0; Mass range: 100-1200 Da. Nitrogen gas was used. These parameters were obtained by optimization. The used HPLC column was a 30 mm long WATERS ACQUITY UPLC column with an inner diameter of 2.1 mm and filled with C18 packing of 1.8 um. The amounts of the injected samples were changed between 2-10 ul. The eluents used due to the appropriate ionization were as follows:
(§3) Eluent A: 0.395 g of NH4HCO3 dissolved in 1 l water+50 ml MeCN.
(§4) Solution A: 0.1 M Ca ion stock solution: 222.1 mg (2 mmol) of anhydrous CaCl2 are dissolved in 20 ml of distilled water.
Solution B: 0.1 M Sr ion stock solution: 533.5 mg (2 mmol) of SrCl2.6H2O are dissolved in 20 ml of distilled water.
(§5) 100 μl of A stock solution and to 100 μl of I, II, III or IV solutions 100 μl of B-G solution are added according to the Table below and the amount of the thus obtained samples are completed to 1 ml, then injected into the HPLC.
(§6) A minimal retention time of 0.75 minutes was registered in case of the tests with Decorporol. We registered the free complex-forming compound (M+H+DA), the calcium adduct (M−H^++38 Da) and the strontium complex (M−H^++86 Da) in every case. Due to the very similar chemical properties of the Ca ion and the strontium ion it is presumable that they behave similarly during ionization, therefore we have determined the selectivity compared to Ca ion by the ratio of the average mass spectrometry signals of Ca adducts to Sr adducts. In case of the measurements of the physiologically important and toxic metal ions the compound of formula (P-3) was used. The signal of the corresponding metal ion adduct was always well separated from the signal of the mother compound and from the signal of the Ca-adduct.

[2] = Quantum chemical calculation of the Ca2+ ion changing process (Gaussian09, B3LYP/LANL2DZ); conditions: ratio of calculated RH values
Method: Since there is no appropriate analytical method for the measurement of the complex-forming properties of these compounds with sufficient accuracy, we determined the complex-forming constants compared to the calcium ion complexes with high level quantum chemical calculations. The calculations were performed using Gaussian09 software on B3LYP/LANL2DZ theoretical level. In course of the calculations frequency calculations were also performed from which thermodynamic data were also determined.
The ion binding capabilities to each of ions are compared to the calcium binding capabilities, which is shown by RH (relative complex-forming tendency).
The thermodynamic data (ΔE, ΔH, ΔG) were calculated with mathematical equations from the values of E, H and G counted on quantum chemical basis: ΔE[complex-M]=E[complex-M]+E[CaCl2.6H2O]−{E[complex-Ca]+E[MCl2.6H2O]} ΔH[complex-M]=H[complex-M]+H[CaCl2.6H2O]−{H[complex-Ca]+H[MCl2.6H2O]} ΔG[complex-M]=G[complex-M]+G[CaCl2.6H2O]−{G[complex-Ca]+G[MCl2.6H2O]}
The relative complex-forming constant (RG) compared to the Ca^2+ ion can be calculated with the following equation: […]
Since the quotient formation expectedly causes a loss of entropy coefficients, the following equation was used which is more practical due to the fluctuation of the calculated entropy coefficient: […]

[3] = Measurement of metal selectivity by HPLC-MS (ESI), ratio of metal adduct to Ca adduct signals; assay type: binding; remark: listed apart in the source
[4] = mice, compound added intravenously, calcium remained; cited from earlier work
[5] = Measurement of metal selectivity by HPLC-MS (ESI), ratio of metal adduct to Ca adduct signals; assay type: binding; conditions: for binding of Pb ion / palladium (in words): HPLC-MS; for M^2+/Ca^2+ rate / M^2+/Ca^2+ rate, peak of decarboxylated fragment (in brackets): M = Pd
Method: as §1, §2, §3, §4
Solution F: 0.1 M Pb ion stock solution: 217.0 mg […] of Pb(OOCCF3)2 are dissolved in 5 ml distilled water.
as §5, §6

[6] = as above; assay type: binding; conditions: for binding of Sn ion (in words): HPLC-MS; for M^2+/Ca^2+ rate: M = Sn
Method: as §1, §2, §3, §4
Solution E: 0.1 M Sn ion stock solution: 379.6 mg (2 mmol) of SnCl2 are dissolved in 20 ml of distillated water.
as §5, §6

[7] = Decarboxylation observed during the HPLC-MS measurements; assay type: physicochemical
Method: The decarboxylation, which is characteristic of decorporol, was shown also during the measurements.
as §2, §6
This process is well-known and leads to slow degradation of decorporol. The mono-decarboxylated and the double-decarboxylated derivatives are the main contaminants of decorporol and their solubility is very low in water, therefore beyond a certain concentration the complexes could precipitate.

[8] = Measurement of metal selectivity by HPLC-MS (ESI), ratio of metal adduct to Ca adduct signals; assay type: binding; conditions: for binding of Cu ion (in words): HPLC-MS
Method: as §1, §2, §3, §4
Solution C: 0.1 M Cu ion stock solution: 500.0 mg (2 mmol) of CuSO4.5H2O are dissolved in 20 ml of distilled water.
as §5, §6

[9] = as above; assay type: binding; conditions: for binding of Zn ion (in words): HPLC-MS
Method: as §1, §2, §3, §4
Solution D: 0.1 M Zn ion stock solution: 272.5 mg (2 mmol) of ZnCl2 are dissolved in 20 ml of distilled water.
as §5, §6

[10] = as above; assay type: binding; remark: listed apart in the source
Method: as §1
The measuring of Ca—Sr ionselectivity was carried out with an AGILENT 6140 Octapol MS (mass spectrometer) equipped with an AGILENT 1200 HPLC. The ionization was carried out by using an electron-spray (ESI, MM-FS) soft ionization equipment with positive detection. The used field strength was 10000V, the spray temperature 220° C., Fragmentor: 70; Treshold: 500, stepsize 0.2 Da; Ionization Switch Delay: 0 ms; Polarity Switch Delay 300 ms; Gain: 1:0; Mass range: 100-1200 Da. […]
A minimal retention time of 0.75 minutes was registered in case of the tests with Decorporol. […] Due to the very similar chemical properties of the Ca ion and the strontium ion it is presumable that they behave similarly during ionization, therefore we have determined the selectivity compared to Ca ion by the ratio of the average mass spectrometry signals of Ca adducts to Sr adducts. […]

[11] = during HPLC-MS measurements with metal ions

For “2-(2-{16-[(1,2-Dicarboxy-ethylcarbamoil)-methyl]-1,4,10,13-tetraoxa-7,16-diaza-cyclooctadec-7-yl}-acetylamino)-succinic acid [(P-2)]”, the “MS peak of the free complex-forming compound compared with the peak of its Sr complex” value [1] was “significantly lower; also recorded: considerably smaller”, the “binding of strontium ion (in words)” value [1] was “stronger than Ca ion” and the “strontium binding affinity compared to the compound of formula (XI)” value [2] was “approximately 4 fold”. For the same compound, the “Sr^2+/Ca^2+ rate” value [3] was 1.4.

In the case of `O=C(O)C(C(=O)O)N1CCOCCOCCN(C(C(=O)O)C(=O)O)CCOCCOCC1` [Decorporol, (7,16-bis-malonate)-1,4,10,13-tetraoxa-7,16-diazacyclooctadecane-bis-malonic acid], the “removal of strontium from the body” value [4] is listed as “removed selectively”, the “MS peak of the free complex-forming compound compared with the peak of its Sr complex” value ([1]; listed as decorporol) is listed as “worse; also recorded: lower” and the “binding of Pb ion / palladium (in words)” value [5] is listed as “significantly less”. For the same compound, the “M^2+/Ca^2+ rate” value [5] was 20, the “M^2+/Ca^2+ rate, peak of decarboxylated fragment (in brackets)” value (“M^2+/Ca^2+ rate, peak” for short) ([5]; first bracketed peak) was 29 and the “M^2+/Ca^2+ rate, peak” value ([5]; second bracketed peak) was 40. For the same compound, the “binding of Sn ion (in words)” value [6] was “significantly less”, the “M^2+/Ca^2+ rate” value [6] was 22 and the decarboxylation [7, 11] was “significant decarboxylation”. The decarboxylation ([7]; in case of Pb ion) was “very strong decarboxylation process”, the “Sr^2+/Ca^2+ rate” value [3] was 1.2 and the “binding of Cu ion (in words)” value [8] was “a bit stronger than the compound of the formula of (P-3)”. The “M^2+/Ca^2+ rate” value ([8]; M = Cu) was 1.2, the “M^2+/Ca^2+ rate, peak” value ([8]; M = Cu) was 1.5 and the “binding of Zn ion (in words)” value [9] was “stronger than Ca”. For the same compound, the “binding of Zn ion (in words)” value ([9]; listed as decorporol) was “Good binding; also recorded: stronger than Ca ions”, the “M^2+/Ca^2+ rate” value ([9]; M = Zn) was 8 and the “M^2+/Ca^2+ rate, peak” value ([9]; M = Zn) was 4.

For `O=C(CN1CCOCCOCCN(CC(=O)NC(C(=O)O)C(=O)O)CCOCCOCC1)NC(C(=O)O)C(=O)O` [(P-1), 2-(2-{16-[(Dicarboxymethyl-carbamoyl)-methyl]-1,4,10,13-tetraoxa-7,16-diaza-cyclooctadec-7-yl}-acetiyamino)-malonic acid], the “MS peak of the free complex-forming compound compared with the peak of its Sr complex” value [1] was “significantly lower; also recorded: considerably smaller”, the “strontium binding affinity compared to the compound of formula (XI)” value [2] was “more than 4 fold” and the “Sr^2+/Ca^2+ rate” value [3] was 1.25.

With `O=C(O)CCC(NC(=O)CN1CCOCCOCCN(CC(=O)NC(CCC(=O)O)C(=O)O)CCOCCOCC1)C(=O)O` (stereo not drawn) [(P-3), 2-(2-{16-[(1,3-Dicarboxy-propylcarbamoyl)-methyl]-1,4,10,13-tetraoxa-7,16-diaza-cyclooctadec-7-yl}-acetylamino)-pentanedioic acid] the “MS peak of the free complex-forming compound compared with the peak of its Sr complex” value [1] was “significantly lower; also recorded: considerably smaller”, the “binding of strontium ion (in words)” value [1] was “strongest; also recorded: stronger than Ca ion” and the “binding of Fe ion (in words)” value ([10]; HPLC-MS) was “does not bind”. For the same compound, the “M^2+/Ca^2+ rate” value ([10]; M = Fe) was “ca. 0”, the “binding of Pb ion / palladium (in words)” value [5] was “very strongly” and the “M^2+/Ca^2+ rate” value [5] was 29. The “binding of Sn ion (in words)” value [6] was “very strongly”, the “M^2+/Ca^2+ rate” value [6] was 100 and the decarboxylation [7, 11] was “does not decarboxylate”. For the same compound, the “Sr^2+/Ca^2+ rate” value [3] was 1.5, the “binding of Cu ion (in words)” value [8] was “a little stronger than Ca ion; also recorded: slightly binds” and the “M^2+/Ca^2+ rate” value ([8]; M = Cu) was 1.1. For the same compound, the “binding of Zn ion (in words)” value [9] was “does not bind” and the “M^2+/Ca^2+ rate” value ([9]; M = Zn) was “ca. 0”.
